From patent publication US10213516B2, “Labelled carboxylic acids and their uses in molecular imaging” (Imperial Innovations Limited, priority 2013, dated 2019)
Entries after “also recorded” stand apart in the source; their conditions may differ. Each block holds one compound with its values, some of them ahead of it.

What was measured:
tumour = settings: cited from earlier work
[1] = test system: EMT6 murine breast cancer cells; assay: [18F]FDMP uptake in cells (gamma counting); type: cell-based
Procedure: (§1) EMT6 murine breast cancer cells (LGC Standards) were grown in Waymouth's medium (Life Technologies), with U87 human glioma cells (LGC Standards) grown in DMEM medium (Life Technologies). DU145 (kind donation from Dr. Almut Schulze, CRUK London Research Institute) and BT474 (LGC Standards) were grown in RPMI (Life Technologies). All media were supplemented with 2.5 mL penicillin/streptomycin (10,000 IU·mL^−1/10,000 […]) and 2 mM L-glutamine (Life Technologies). Waymouth's medium contained 15% fetal calf serum (FCS), with 10% FCS added to DMEM and RPMI. All cells were propagated at 37° C. in a humidified atmosphere containing 5% CO2.
EMT6 cells (2×10^5) were plated into 6-well plates overnight prior to analysis. On the day of the experiment fresh growth medium containing 0.74 MBq [^18F]FDMP were added to individual wells (1 mL/well). Cell uptake was measured over 60 min post radiotracer addition. Plates were placed on ice, washed 3 times with ice-cold PBS and lysed in RIPA buffer (Thermo Fisher Scientific Inc.; 1 mL, 10 min). Cell lysates were transferred to counting tubes and decay-corrected radioactivity was determined on a gamma counter (Cobra II Auto-Gamma counter, Packard Biosciences Co.). Aliquots were snap-frozen and used for protein determination following radioactive decay using a BCA 96-well plate assay (Thermo Fisher Scientific Inc.). In addition, 10 μL standards from a 0.74 MBq/mL stock solution were counted to quantitate % radiotracer uptake. For carnitine treatment, cells were incubated with 10 μM L-carnitine for the duration of the uptake time course.

[2] = test system: U87 glioma human xenografts; assay: Biodistribution in U87 human glioblastoma-bearing BALB/c nude mice; type: in vivo; settings: for Tumour/brain ratio: U87 glioma, 60 min post injection; for Tumour uptake: U87 xenografts, 60 min post-radiotracer injection
Procedure: (§2) All animal experiments were performed by licensed investigators in accordance with the United Kingdom Home Office Guidance on the Operation of the Animal (Scientific Procedures) Act 1986 and within the published guidelines for the welfare and use of animals in cancer research.^22 EMT6 tumour cells (2×10^6; 100 μL PBS) were injected subcutaneously on the back of female BALB/c mice (aged 6-8 weeks; Charles River) and grown to ˜150 mm^3. U87 tumours were grown following subcutaneous injection of 5×10^6 cells (100 μL PBS) on the back of female BALB/c nude mice (aged 6-8 weeks; Charles River), with BT474 tumours induced following injection of 5×10^6 cells in matrigel (BD Biosciences; 1:1 ratio PBS-to-matrigel; 100 μL total). Tumour dimensions were measured periodically using a caliper and tumour volumes were calculated by the equation: volume=(π/6)×a×b×c, where a, b, and c represent three orthogonal axes of the tumour. Inflammation was performed in an aseptic inflammation model as previously described.^23
(§3) [^18F]FDMP (˜3.7 MBq) was injected via the tail vein of anaesthetized EMT6 tumour-bearing BALB/c mice. The mice were maintained under anesthesia and sacrificed by exsanguination via cardiac puncture at 2, 15, 30, 60, 120 or 180 min post radiotracer injection and tissues harvested. Biodistribution studies with BT474 and U87 tumour-bearing nude mice were performed 60 min post [^18F]FDMP injection. Tissue radioactivity was determined on a gamma counter (Cobra II Auto-Gamma counter, Packard Biosciences Co.) and decay corrected. 10 μL standards from a 1:100 dilution of the stock activity were also counted for data normalization. Plasma was obtained from terminal blood samples following centrifugation (14000 g, 5 min). Data were expressed as percent injected dose per gram of tissue (% ID/g).

[3] = test system: orthotopic U87 brain tumour; assay: PET imaging in orthotopic U87 brain tumour model; type: in vivo; settings: 15-30 min and 45-60 min post radiotracer injection
Procedure: FIG. 14. [^18F]FDMP and [^18F]FDG uptake in an orthotopic U87 brain tumour model. PET images were acquired 15-30 min and 45-60 min post radiotracer injection 6 weeks after intracranial injection of U87 glioma cells. White arrows indicate the tumour.
[^18F]FDMP and [^18F]FDG uptake in an orthotopic U87 brain tumour model was analysed (FIG. 14). […] The background is very low, so good staining is achieved.

[4] = PET/CT imaging in healthy BALB/c mice; type: in vivo
BT474 tumours = assay: Biodistribution in BT474 tumour-bearing nude mice; type: in vivo, BALB/c nude mice; settings: 60 min post injection
Procedure: as §2, with “Inflammation was performed in an aseptic inflammation model as previously described.^23” left out
[^18F]FDMP (˜3.7 MBq) was injected via the tail vein of anaesthetized EMT6 tumour-bearing BALB/c mice. […] Tissue radioactivity was determined on a gamma counter (Cobra II Auto-Gamma counter, Packard Biosciences Co.) and decay corrected. 10 μL standards from a 1:100 dilution of the stock activity were also counted for data normalization. […] Data were expressed as percent injected dose per gram of tissue (% ID/g).

[5] = test system: Turpentine-induced inflammatory tissue; assay: Aseptic inflammation model biodistribution; type: in vivo; settings: for Inflammation-to-muscle ratio: in vivo; for Accumulation in chemically-induced inflammatory tissues: turpentine-treated muscle
Procedure: as §2, §3

EMT6 tumours = assay: PET imaging of EMT6 tumour-bearing mice; type: in vivo; settings: 60 min
Procedure: All animal experiments were performed by licensed investigators in accordance with the United Kingdom Home Office Guidance on the Operation of the Animal (Scientific Procedures) Act 1986 and within the published guidelines for the welfare and use of animals in cancer research.^22 EMT6 tumour cells (2×10^6; 100 μL PBS) were injected subcutaneously on the back of female BALB/c mice (aged 6-8 weeks; Charles River) and grown to ˜150 mm^3. […] Tumour dimensions were measured periodically using a caliper and tumour volumes were calculated by the equation: volume=(π/6)×a×b×c, where a, b, and c represent three orthogonal axes of the tumour. […]
[^18F]FDMP imaging scans were carried out on a GENISYS^4 small animal PET scanner (Sofie Biosciences), following a bolus i.v. injection of ˜1.85 MBq of the radiotracer into tumour-bearing mice. […] Tumour radioactivity were normalized to that of the whole body to obtain the normalized uptake value (NUV) to permit comparison of data obtained using the two scanners.
Dynamic [^18F]FDMP imaging scans were carried outa dedicated small animal PET scanner (Siemens Inveon PET module, Siemens Medical Solutions USA, Inc., Malvern, Pa., USA) following a bolus i.v. injection of ˜3.7 MBq of the radiotracer into tumour-bearing mice. […] The count densities were averaged for all VOIs at each time point to obtain a time versus radioactivity curve (TAC). […]

[6] = In vivo radiotracer stability and metabolism (radio-HPLC of tissue extracts); design: species or system BALB/c non-tumour-bearing mice
Procedure: Radiolabeled metabolites from plasma and tissues were quantified using an adapted method.^24 BALB/c non-tumour-bearing mice under general anesthesia (2.5% isofluorane; non-recovery anesthesia) were administered a bolus i.v. injection of [^18F]FDMP (˜7.4 MBq), and sacrificed by exsanguination via cardiac puncture 30 min post radiotracer injection. Heart, urine and liver samples were immediately snap-frozen in liquid nitrogen. Aliquots of heparinized blood were rapidly centrifuged (14000 g, 5 min, 4° C.) to obtain plasma. Plasma samples were subsequently snap-frozen in liquid nitrogen and kept on dry ice prior to analysis. For analysis, samples were thawed and kept at 4° C. immediately before use. To ice cold plasma and urine (200 μL) was added ice-cold methanol (600 μL) and the resulting suspension centrifuged (14000 g; 4° C.; 3 min). 300 μL of the resulting supernatant was added to 1 mL ice cold mobile phase. […] Samples were analyzed on an Agilent 1100 series HPLC system (Agilent Technologies, Santa Clara, Calif., USA), using an isocratic method of 10% MeOH in an ion pair buffer prepared as follows and a μBondapak C18 semi preparative HPLC column (Waters, Milford, Mass., USA; […]). […]

[7] = test system: EMT6 murine breast adenocarcinoma xenografts; assay: Biodistribution time course in EMT6 tumour-bearing BALB/c mice; type: in vivo
Procedure: as §2, §3

[8] = test system: DU145 prostate adenocarcinoma tumours; assay: PET imaging of DU145 tumour-bearing mice; type: in vivo; settings: for Tumour visibility by PET: DU145, 50-60 min static scans; for Tumour to whole body normalized uptake: 50-60 min static scans
Procedure: [^18F]FDMP imaging scans were carried out on a GENISYS^4 small animal PET scanner (Sofie Biosciences), following a bolus i.v. injection of ˜1.85 MBq of the radiotracer into tumour-bearing mice. Static scans were acquired for 10 min and images were reconstructed using maximum-likelihood expectation maximization. In a different cohort of mice, dynamic PET imaging was performed on a Siemens Inveon PET module, (Siemens Medical Solutions USA) as described in supplementary materials. Dynamic PET imaging was performed for the [^18F]FDMP and [^18F]FDG comparison study in EMT6 tumour-bearing mice. Static scans on the GENISYS^4 were used for all other experiments. Siemens Inveon Research Workplace software was used for visualization of radiotracer uptake in the tumour and to define the three-dimensional volumes of interest (VOI). Tumour radioactivity were normalized to that of the whole body to obtain the normalized uptake value (NUV) to permit comparison of data obtained using the two scanners.

BT474 cells = assay: Metabolism experiments in cells (LC-MS); type: cell-based, human
Procedure: as §1
BT474 cells were seeded in 12-well plates at 2×10^5 cells per well. For measurement of FDMP uptake, the media was replaced with media supplemented with 500 μM FDMP and incubated for the indicated times. All media samples were harvested at the same time and immediately diluted into ice-cold extraction solution of methanol, acetonitrile, and water (5:3:2) (All chemicals were purchased from Fisher Scientific and were LC-MS grade). Cell numbers were assumed to be identical. The amount of extraction solution added to each well was determined by cell counts obtained from a counting plate run in parallel (1 mL/2×10^6 cells). Extracts were vortexed for 10 min at 4° C. and then centrifuged at 16,500 g at 4° C. for 15 min. Supernatants were removed and analyzed by LC-MS (ZIC-pHelic HPLC columns and Exactive Plus Orbitrap MS (ThermoScientific). Data was analyzed using Xcalibur and LCQuan software (ThermoScientific). FDMP and FAC standards were run in isolation for quantification.

Compound: CC([18F])C(=O)O (centres unmarked) [[^18F]FPA, [^18F]2-fluoropropionic acid]
Tumour-to-brain ratio (tumour; 60 minutes post-injection): 1.27
Tumour to blood ratio (tumour; Table 1 in reference 28): 1.03

Compound: CC(C)(C[18F])C(=O)O [[^18F]FDMP, [^18F]3-fluoro-2,2-dimethylpropanoic acid]
Uptake into EMT6 tumour cells ([1]; 30 min of incubation): 1.40±0.10 % radioactivity/mg protein
Uptake into EMT6 tumour cells ([1]; 60 min post radiotracer addition (plateau)): 1.47±0.04 % radioactivity/mg protein
Uptake increase compared to control cells ([1]; incubation with 10 μM L-carnitine): 44%
Tumour/brain ratio [2]: 2.5
Tumour uptake [2]: 9.35±1.0 % ID/g
Uptake in the normal brain ([2]; compared with [18F]FDG): significantly lower than [^18F]FDG
Tumour staining in PET images [3]: good staining of the U87 tumour was visible
Defluorination of the tracer (retention in bones) [4]: no defluorination
Tumour radioactivity (BT474 tumours): 7.6±1.2 % ID/g
Inflammation-to-muscle ratio [5]: 2.36
Accumulation in chemically-induced inflammatory tissues [5]: 6.53±1.13 % ID/g
Tumour to whole body normalized uptake (EMT6 tumours): 1.15±0.13 NUV
Stability in plasma, liver and heart by radioHPLC ([6]; 30 min post injection): no degradation; also recorded: only peaks of the parent compound detectable
Parent peak fraction in urine ([6]; urine, 30 min): 61.8±6.6 % radioactivity
Bone uptake ([7]; 2, 15, 30 and 60 minutes after administration): low bone uptake
Tumour to blood ratio ([7]; EMT6, after 60 minutes): up to 2.32
Tumour-associated radioactivity ([7]; EMT6 tumour, 30 min post injection): 9.3±1.0 % ID/g
Tumour-associated radioactivity ([7]; EMT6 tumour, 120 min post radiotracer injection): 9.8±2.0 % ID/g
Tumour-associated radioactivity ([7]; EMT6 tumour, 180 min): 6.3±0.7 % ID/g
Reduction of tumour-associated radioactivity ([7]; EMT6 tumour, by 180 min): 36%
Tumour radioactivity ([7]; EMT6 tumours, 60 min post injection): 9.1±0.5 % ID/g
Blood-brain barrier passage ([7]; gamma counting and dynamic PET): able to cross the blood-brain barrier; also recorded: passes the blood brain barrier
Tumour visibility by PET [8]: clearly discernable
Tumour uptake higher than [18F]FDG ([8]; DU145 prostate tumours): 54%
Tumour to whole body normalized uptake ([8]; DU145 prostate tumours): 0.73±0.07 NUV

Tumour/brain ratio [2]: 1.3
Tumour uptake [2]: 11.0±1.1 % ID/g
Inflammation-to-muscle ratio [5]: 2.66
Accumulation in chemically-induced inflammatory tissues [5]: 5.86±0.68 % ID/g
Tumour to whole body normalized uptake (EMT6 tumours): 1.02±0.16 NUV
Tumour to whole body normalized uptake ([8]; DU145 prostate tumours): 0.47±0.09 NUV
Compound: [^18F]2-fluoro-2-deoxyglucose [[^18F]FDG, reference compound]
Tumour visibility by PET [8]: not visible above background

Compound: CC(C)(CF)C(=O)O [[^19F]FDMP]
Uptake by BT474 cells detected by mass spectrometry (BT474 cells; 500 μM in medium): rapidly taken up
Intracellular metabolites observed by LC-MS (BT474 cells; 500 μM in medium, BT474 cells): no other metabolites were observed

Compound: O=C(O)CF [[^19F]FAC, [^19F]fluroacetate, reference compound]
Intracellular metabolites observed by LC-MS (BT474 cells; 500 μM in medium, BT474 cells): only the parent compound and [^19F]fluorocitrate were observed
Effect on intracellular metabolite pools (citrate, cis-aconitate, alpha-ketoglutarate) (BT474 cells; BT474 cells, LC-MS): significant increase in citrate and cis-aconitate, together with significant decrease in alpha-ketoglutarate
